Test results reported in ChEMBL document CHEMBL1144455, “A small molecule-kinase interaction map for clinical kinase inhibitors” (Nat Biotechnol, 2005).

What was measured:
[1] = target: Serine/threonine-protein kinase Nek6 (Homo sapiens, UniProt Q9HC98)
[2] = target: Cyclin-dependent kinase 2 (Homo sapiens, UniProt P24941)
[3] = target: Protein-tyrosine kinase 6 (Homo sapiens, UniProt Q13882)
[4] = target: Ribosomal protein S6 kinase alpha-5 (Homo sapiens, UniProt O75582)
[5] = target: T1, Serine/threonine-protein kinase 17B (Homo sapiens, UniProt O94768)
T1 sequence (O94768 whole entry): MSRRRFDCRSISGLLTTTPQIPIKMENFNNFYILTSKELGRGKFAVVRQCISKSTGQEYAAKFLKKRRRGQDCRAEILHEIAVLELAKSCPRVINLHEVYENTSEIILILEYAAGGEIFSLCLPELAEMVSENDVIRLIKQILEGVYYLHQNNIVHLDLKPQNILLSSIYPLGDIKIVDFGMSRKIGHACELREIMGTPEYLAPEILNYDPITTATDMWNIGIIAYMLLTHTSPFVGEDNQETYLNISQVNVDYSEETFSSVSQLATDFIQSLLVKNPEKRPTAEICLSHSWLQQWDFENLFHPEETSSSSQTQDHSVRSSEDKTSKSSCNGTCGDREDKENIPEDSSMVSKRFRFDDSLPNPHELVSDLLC

[6] = target: T2, Mitogen-activated protein kinase kinase kinase 5 (Homo sapiens, UniProt Q99683)
T2 sequence (Q99683 whole entry): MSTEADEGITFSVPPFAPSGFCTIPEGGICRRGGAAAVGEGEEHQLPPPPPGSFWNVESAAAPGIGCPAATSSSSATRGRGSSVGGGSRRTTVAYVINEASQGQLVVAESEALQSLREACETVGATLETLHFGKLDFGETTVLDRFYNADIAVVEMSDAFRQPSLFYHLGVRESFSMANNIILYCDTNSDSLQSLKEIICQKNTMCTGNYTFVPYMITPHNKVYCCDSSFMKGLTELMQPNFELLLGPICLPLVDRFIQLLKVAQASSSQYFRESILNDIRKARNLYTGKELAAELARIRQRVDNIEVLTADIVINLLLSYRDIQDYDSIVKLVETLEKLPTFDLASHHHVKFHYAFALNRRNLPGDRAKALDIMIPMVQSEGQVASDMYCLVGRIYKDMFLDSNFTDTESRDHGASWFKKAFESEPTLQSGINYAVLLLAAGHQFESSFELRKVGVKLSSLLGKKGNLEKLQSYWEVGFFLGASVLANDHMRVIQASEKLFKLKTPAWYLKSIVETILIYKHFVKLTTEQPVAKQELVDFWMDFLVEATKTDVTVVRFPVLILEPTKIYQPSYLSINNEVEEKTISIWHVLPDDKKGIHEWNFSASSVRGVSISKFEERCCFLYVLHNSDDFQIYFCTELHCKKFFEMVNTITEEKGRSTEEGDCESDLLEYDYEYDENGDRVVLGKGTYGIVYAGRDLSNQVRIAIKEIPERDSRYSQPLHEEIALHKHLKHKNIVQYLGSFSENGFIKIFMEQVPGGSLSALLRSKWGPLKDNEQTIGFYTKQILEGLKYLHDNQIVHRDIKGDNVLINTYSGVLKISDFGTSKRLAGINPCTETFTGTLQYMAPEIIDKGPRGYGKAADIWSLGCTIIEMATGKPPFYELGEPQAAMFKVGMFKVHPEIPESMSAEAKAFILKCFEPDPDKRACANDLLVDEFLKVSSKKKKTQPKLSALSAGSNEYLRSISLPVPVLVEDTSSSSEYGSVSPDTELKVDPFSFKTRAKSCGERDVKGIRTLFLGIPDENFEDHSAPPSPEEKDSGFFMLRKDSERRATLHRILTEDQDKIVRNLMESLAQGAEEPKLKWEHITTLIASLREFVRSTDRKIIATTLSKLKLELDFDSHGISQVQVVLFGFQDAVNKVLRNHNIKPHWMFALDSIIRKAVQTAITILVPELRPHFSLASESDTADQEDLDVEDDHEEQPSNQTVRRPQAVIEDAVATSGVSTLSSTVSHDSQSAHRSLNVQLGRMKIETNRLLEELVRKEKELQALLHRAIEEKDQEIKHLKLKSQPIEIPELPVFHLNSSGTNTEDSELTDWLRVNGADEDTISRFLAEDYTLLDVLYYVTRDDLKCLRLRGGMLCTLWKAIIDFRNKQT

[7] = target: T3, Receptor-type tyrosine-protein kinase FLT3 (Homo sapiens, UniProt P36888)
T3 sequence (P36888 whole entry): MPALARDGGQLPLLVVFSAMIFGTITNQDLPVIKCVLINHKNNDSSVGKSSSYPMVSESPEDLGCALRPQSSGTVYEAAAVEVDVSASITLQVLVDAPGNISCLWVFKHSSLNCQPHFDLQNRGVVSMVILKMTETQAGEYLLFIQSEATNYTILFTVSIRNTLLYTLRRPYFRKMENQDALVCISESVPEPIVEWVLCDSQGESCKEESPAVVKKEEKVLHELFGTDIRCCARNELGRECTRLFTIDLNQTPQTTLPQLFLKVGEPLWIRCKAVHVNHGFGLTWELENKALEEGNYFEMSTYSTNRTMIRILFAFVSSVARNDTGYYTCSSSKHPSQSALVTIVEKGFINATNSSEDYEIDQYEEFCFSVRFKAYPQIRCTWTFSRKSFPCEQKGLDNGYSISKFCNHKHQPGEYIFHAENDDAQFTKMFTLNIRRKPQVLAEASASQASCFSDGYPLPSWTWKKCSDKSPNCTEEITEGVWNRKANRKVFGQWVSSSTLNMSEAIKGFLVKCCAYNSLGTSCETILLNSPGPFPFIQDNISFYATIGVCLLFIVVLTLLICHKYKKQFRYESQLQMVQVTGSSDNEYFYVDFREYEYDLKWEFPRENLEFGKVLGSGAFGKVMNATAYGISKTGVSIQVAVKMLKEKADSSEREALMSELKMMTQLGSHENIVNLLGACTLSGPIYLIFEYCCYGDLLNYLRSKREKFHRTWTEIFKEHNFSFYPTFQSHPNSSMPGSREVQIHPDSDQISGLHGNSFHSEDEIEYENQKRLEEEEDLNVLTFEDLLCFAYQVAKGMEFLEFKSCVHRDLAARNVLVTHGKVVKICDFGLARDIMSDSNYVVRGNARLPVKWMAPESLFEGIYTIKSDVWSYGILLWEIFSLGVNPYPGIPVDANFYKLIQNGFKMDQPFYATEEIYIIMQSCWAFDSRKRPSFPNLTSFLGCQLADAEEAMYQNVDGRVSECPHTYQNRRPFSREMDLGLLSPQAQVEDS

[8] = target: Serine/threonine-protein kinase 16 (Homo sapiens, UniProt O75716)
[9] = target: Vascular endothelial growth factor receptor 2 (Homo sapiens, UniProt P35968)

Measured: Kd

Chain of Serine/threonine-protein kinase Nek6 (Q9HC98 whole entry): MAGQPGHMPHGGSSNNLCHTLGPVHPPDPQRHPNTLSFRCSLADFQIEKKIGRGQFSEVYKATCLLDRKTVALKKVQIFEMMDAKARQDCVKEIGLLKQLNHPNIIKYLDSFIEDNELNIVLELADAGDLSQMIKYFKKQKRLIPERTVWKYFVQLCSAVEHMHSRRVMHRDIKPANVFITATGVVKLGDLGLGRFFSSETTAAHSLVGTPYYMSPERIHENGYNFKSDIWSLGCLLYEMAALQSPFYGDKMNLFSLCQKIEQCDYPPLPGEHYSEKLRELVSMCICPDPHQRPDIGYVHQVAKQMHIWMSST
Chain of Ribosomal protein S6 kinase alpha-5 (O75582 whole entry): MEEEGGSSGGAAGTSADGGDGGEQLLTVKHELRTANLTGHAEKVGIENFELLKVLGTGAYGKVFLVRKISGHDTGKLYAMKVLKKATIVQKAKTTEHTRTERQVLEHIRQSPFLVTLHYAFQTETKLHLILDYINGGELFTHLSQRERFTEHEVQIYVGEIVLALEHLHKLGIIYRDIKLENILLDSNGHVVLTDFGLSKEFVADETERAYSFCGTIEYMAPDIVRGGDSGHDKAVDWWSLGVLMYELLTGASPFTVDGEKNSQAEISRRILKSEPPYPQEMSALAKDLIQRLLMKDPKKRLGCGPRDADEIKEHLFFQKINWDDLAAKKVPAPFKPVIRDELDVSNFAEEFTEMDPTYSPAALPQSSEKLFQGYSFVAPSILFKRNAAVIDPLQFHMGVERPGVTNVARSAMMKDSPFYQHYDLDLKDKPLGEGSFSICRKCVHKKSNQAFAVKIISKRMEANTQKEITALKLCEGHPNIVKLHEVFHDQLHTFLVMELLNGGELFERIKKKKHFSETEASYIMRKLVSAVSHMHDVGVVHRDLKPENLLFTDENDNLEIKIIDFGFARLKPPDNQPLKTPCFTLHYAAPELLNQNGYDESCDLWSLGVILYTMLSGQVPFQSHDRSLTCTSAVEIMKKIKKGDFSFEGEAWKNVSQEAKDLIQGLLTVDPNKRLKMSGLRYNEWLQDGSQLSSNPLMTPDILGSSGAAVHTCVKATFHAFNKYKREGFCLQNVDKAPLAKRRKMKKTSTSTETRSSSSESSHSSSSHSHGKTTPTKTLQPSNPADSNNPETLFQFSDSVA
Chain of Protein-tyrosine kinase 6 (Q13882 whole entry): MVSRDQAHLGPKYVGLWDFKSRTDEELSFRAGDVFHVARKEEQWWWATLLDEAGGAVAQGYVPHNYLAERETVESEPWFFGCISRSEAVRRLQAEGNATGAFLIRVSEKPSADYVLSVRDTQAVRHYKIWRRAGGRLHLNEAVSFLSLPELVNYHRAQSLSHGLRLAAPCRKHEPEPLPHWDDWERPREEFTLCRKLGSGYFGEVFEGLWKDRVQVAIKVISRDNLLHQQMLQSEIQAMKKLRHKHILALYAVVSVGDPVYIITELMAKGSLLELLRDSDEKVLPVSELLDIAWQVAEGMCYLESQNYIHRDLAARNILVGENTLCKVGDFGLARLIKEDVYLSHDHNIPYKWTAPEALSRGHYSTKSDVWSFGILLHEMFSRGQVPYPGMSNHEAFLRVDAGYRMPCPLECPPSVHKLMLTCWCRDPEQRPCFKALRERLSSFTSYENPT
Chain of Serine/threonine-protein kinase 16 (O75716 whole entry): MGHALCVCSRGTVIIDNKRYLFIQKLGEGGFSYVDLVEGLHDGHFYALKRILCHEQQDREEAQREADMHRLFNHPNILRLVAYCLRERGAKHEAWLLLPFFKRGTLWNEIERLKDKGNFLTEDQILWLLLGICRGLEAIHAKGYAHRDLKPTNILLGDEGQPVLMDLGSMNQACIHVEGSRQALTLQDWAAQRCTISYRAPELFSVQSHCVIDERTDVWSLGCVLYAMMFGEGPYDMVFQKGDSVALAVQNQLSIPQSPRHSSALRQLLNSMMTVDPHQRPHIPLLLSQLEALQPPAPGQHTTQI
Chain of Vascular endothelial growth factor receptor 2 (P35968 whole entry): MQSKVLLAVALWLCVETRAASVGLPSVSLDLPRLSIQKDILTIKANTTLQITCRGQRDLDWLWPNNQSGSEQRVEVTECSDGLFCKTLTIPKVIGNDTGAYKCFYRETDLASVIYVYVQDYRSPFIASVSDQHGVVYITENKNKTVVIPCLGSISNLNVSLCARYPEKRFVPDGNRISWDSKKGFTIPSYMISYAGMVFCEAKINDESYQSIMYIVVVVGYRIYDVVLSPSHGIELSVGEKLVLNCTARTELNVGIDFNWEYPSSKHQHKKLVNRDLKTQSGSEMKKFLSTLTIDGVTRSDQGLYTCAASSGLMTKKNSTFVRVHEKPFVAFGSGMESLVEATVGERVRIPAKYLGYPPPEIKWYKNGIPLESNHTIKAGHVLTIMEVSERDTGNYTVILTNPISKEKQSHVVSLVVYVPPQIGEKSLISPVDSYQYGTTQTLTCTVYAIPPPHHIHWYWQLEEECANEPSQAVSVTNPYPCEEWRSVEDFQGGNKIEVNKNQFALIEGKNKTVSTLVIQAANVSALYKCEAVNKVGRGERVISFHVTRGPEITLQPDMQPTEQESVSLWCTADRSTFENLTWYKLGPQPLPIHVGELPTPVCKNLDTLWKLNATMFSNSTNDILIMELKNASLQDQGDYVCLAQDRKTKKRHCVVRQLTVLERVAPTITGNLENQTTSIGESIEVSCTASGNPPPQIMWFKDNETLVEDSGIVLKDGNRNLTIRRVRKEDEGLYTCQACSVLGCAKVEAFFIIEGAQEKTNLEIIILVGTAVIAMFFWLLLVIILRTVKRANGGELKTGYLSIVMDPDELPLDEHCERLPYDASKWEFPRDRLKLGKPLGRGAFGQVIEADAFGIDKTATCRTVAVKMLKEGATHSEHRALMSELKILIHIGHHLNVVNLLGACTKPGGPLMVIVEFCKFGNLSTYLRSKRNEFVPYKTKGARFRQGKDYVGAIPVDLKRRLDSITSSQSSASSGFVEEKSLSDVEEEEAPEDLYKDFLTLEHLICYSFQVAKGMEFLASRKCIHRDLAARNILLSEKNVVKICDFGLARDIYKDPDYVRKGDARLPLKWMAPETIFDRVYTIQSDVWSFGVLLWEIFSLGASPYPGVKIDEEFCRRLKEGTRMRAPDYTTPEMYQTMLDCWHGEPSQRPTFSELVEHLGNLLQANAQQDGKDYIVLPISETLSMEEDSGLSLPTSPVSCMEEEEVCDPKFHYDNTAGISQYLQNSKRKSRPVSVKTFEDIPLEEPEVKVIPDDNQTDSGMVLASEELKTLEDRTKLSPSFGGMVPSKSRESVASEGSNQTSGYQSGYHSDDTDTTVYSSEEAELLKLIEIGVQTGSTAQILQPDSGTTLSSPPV

C#Cc1cccc(Nc2ncnc3cc(OCCOC)c(OCCOC)cc23)c1 [ERLOTINIB]
Not Active: all assays above

Cc1ccc(NC(=O)c2ccc(CN3CCN(C)CC3)cc2)cc1Nc1nccc(-c2cccnc2)n1 [IMATINIB]
not listed: [2]
Not Active: all other assays above

O=c1ncn2nc(Sc3ccc(F)cc3F)ccc2c1-c1c(Cl)cccc1Cl [NEFLAMAPIMOD]
not listed: [9]
Not Active: all other assays above

CCOc1cc2ncc(C#N)c(Nc3ccc(F)c(Cl)c3)c2cc1NC(=O)/C=C/CN(C)C [PELITINIB]
not listed: [5]
Not Active: all other assays above

Oc1ccc(-c2nc(-c3ccc(F)cc3)c(-c3ccncc3)[nH]2)cc1 [SB-202190]
not listed: [3]
Not Active: all other assays above

C[S+]([O-])c1ccc(-c2nc(-c3ccc(F)cc3)c(-c3ccncc3)[nH]2)cc1 (stereo not given) [SB-203580]
not listed: [3]
Not Active: all other assays above

CC[C@H](CO)Nc1nc(NCc2ccccc2)c2ncn(C(C)C)c2n1 [SELICICLIB]
not listed: [2]
Not Active: all other assays above

Oc1c2ccccc2c2c3c(cccc13)N=N2 [SP-600125]
not listed: [2] | [4] | [8]
Not Active: all other assays above

COc1cc2c(N3CCN(C(=O)Nc4ccc(OC(C)C)cc4)CC3)ncnc2cc1OCCCN1CCCCC1 [TANDUTINIB]
not listed: [7] | [9]
Not Active: all other assays above
